For orientation: GI50 means the concentration giving 50% growth inhibition. Low values mean more potent growth inhibition, high ones less potent growth inhibition.

“Also recorded” adds a separate entry of the source.

One data set deals with NCI 60-cell line panel. Description: NCI 60 cell line assay. Type of data set: cell-based, human.
For data set [1], the system named is KR158 astrocytoma cells (Nf1−/−; Trp53−/−). As to the kind of experiment: XTT cell proliferation assay, KR158. Type of data set: cell-based, mouse. As to the method: (§1) XTT Cell Proliferation Assay: Cells were seeded into 96-well plates at a density of 2,000 cells/well and allowed to reattach overnight. Cells were treated with SA, synthetic analogs, camptothecin (NCI Chemotherapeutics Repository, Md., USA), or DMSO control at the indicated concentrations continuously for 48 hours followed by assay in the 96-well plate for relative viable cell number using the dye […] (XTT) and a Wallac-Victor 2 plate reader (Perkin-Elmer, Waltham, Mass., USA). Absorbance was determined at 450 nm with 650 nm as a reference reading. Primary astrocytes were additionally assayed at a 96 hour time point.
Background: Tetrazolium dyes change colour on reduction, which living cells bring about.

Data set [2] deals with primary astrocytes from wt, Nf1−/+, and NPcis mice. As to the kind of experiment: XTT cell proliferation assay, primary astrocytes. Type of data set: cell-based, mouse. The following applies: for inhibition of proliferation: XTT. As to the method: as §1
Cell culture: Primary astrocytes were prepared as described previously (Hawes et al., J. Biomol. Screen, 2008, 13:795-803) from 1 day old neonatal brains collected from wt, Nf1−/+, and Nf1−/+; Trp53−/+ cis mice.

Another data set relates to primary astrocytes. Description: Cell morphology / actin confocal microscopy, primary astrocytes. Type of data set: cell-based, mouse. Particulars: 18 hours treatment. As to the method:
(§2) Cell Morphology Assays and Confocal Microscopy: To assay cytoskeleton morphology, KR158 cells, mouse primary astrocytes, KR158 clones expressing the NF1-GRD constructs, K14553 cells, and A549 were seeded to cover slips and allowed to reattach overnight. Cells were treated for 18 hours with either the indicated concentrations of SA, or the vehicle control DMSO. The cover slips were fixed in 3.7% paraformaldehyde, permeablized in 0.1% Triton-X100, and stained with Alexa Fluor 488-phalloidin (Invitrogen, Carlsbad, Calif., USA) to detect actin and cells were mounted in Prolong Antifade containing DAPI (Invitrogen) to stain nuclei. The cells were imaged on a LSM510 confocal microscope (Carl Zeiss Inc., Jena, Germany). For phospho-myosin light chain 2 (MLC) detection, cells were seeded to coverslips as described above. Cells were serum starved in 0.5% FBS and SA or DMSO vehicle control for 18 hours, and then pulsed with 10 ng/mL EGF (Invitrogen) for 5 min. […] Actin structures were monitored continuously over a 16 hr period using confocal microscopy equipped with a growth chamber (37° C., humidified atmosphere and 5% CO2). […]

Data set [3] concerns NF1-GRD expressing KR158 clones. Description: Cell morphology / actin confocal microscopy, NF1-GRD KR158. In kind it is cell-based, mouse. As to the method:
Constructs and Transfections: NF1-GRD retroviral constructs were obtained from Indiana University. Cells transduced with the NF1-GRD construct or PMSCV empty vector control as previously described (Hiatt et al., J. Biol. Chem., 2001, 276:7240-5) were maintained in 1 μg/mL puromycin (Sigma).
as §2, with “above.” for “above. Cells were serum starved in 0.5% FBS and SA or DMSO vehicle control for 18 hours, and then pulsed with 10 ng/mL EGF (Invitrogen) for 5 min.”

Data set [4] concerns MPNST cell lines derived from the NPcis mouse. Description: Cell morphology / actin, MPNST cell lines. In kind it is cell-based. As to the method: as §2
The test system of a further data set is MLC phosphorylation. Description: Phospho-myosin light chain immunostaining, MPNST cell lines. Type of data set: cell-based, mouse. As to the method: as §2

Turning to `CC(C)=CCC/C(C)=C/Cc1c(O)cc(/C=C/c2cc(O)c3c(c2)C[C@@H]2C(C)(C)[C@H](O)[C@H](O)C[C@@]2(C)O3)cc1O` [SA, Schweinfurthin A], the selectivity with NCI 60-cell line panel is 1000 fold. Moreover, the differential cytotoxicity result in the data set with NCI 60-cell line panel (NCI 60-cell line panel) was “significant differential cytotoxicity”. For the same compound, the “inhibition of proliferation (percent viability versus control)” value in data set [1] (48 hours, XTT) is “highly active; also recorded: sensitive; also recorded: inhibited both the KR158 and SF-295 cell lines in a dose dependent manner”. The compound further came in with a GI50 in data set [1] (Mus musculus, KR158, Nf1-mutant astrocytoma cells) of 10 nM. In addition, the inhibition of proliferation entry in data set [2] (48 hours) was “does not inhibit; also recorded: are not; also recorded: resistant”; in data set [2] (96 hrs continuous treatment), “resistant”. In addition, in data set [2] (SA concentrations several log-fold higher than the GI50 for KR158), the growth inhibition was no more than 40%. In addition, the “inhibition of Nf1 heterozygous cells” value in data set [2] (at concentrations of 1 μM) is reported as “no inhibition”. Also, in the data set with primary astrocytes, the “actin organization, phalloidin staining” value is reported as “no visible changes in actin organization”. In addition, the actin structures entry in data set [3] was “did not change”. In addition, the actin cytoskeleton result in data set [4] is listed as “loss of stress fibers”. The MLC phosphorylation result with MLC phosphorylation is “reduced MLC phosphorylation”.
